Reference: PMC8231113, “Protein Secondary Structure Affects Glycan Clustering in Native Mass Spectrometry” (Life, 2021)

How the values were obtained:
Assay type in all cases: binding
[1] = target: T1, ubiquitin from bovine erythrocytes (Ubq) (Bos taurus, UniProt P0CG53); assay: Native MS glycan clustering to reference protein Ubq; conditions: on Ubq
T1 construct: ubiquitin from bovine erythrocytes (Ubq, CAS number 75986-22-4); purchased Sigma-Aldrich (Merck, Germany); host or cells: bovine erythrocytes
Experimental: (§1) Prior to MS analysis, purified P dimers were buffer exchanged to 150 mM ammonium acetate (Sigma-Aldrich, reagent grade ≥98%) at pH 7 via centrifugal filter units at 12,000× g at 4 °C (Vivaspin 500, MWCO 10000, Sartorius). Glycans for native MS analysis were mixed with 1 µM (per monomer) purified GII.4 Saga P dimer and 3 µM of the reference proteins at indicated concentrations. Native mass spectra were measured at room temperature in positive ion mode on a high mass modified LCT Premier mass spectrometer (Waters/Micromass, UK and MS Vision, the Netherlands) with a nano-ESI source. In house-made gold-coated electrospray capillaries were used for direct-sample infusion without any accessory chromatographic separation. The voltages and pressures were optimized for non-covalent protein complexes. The gas pressure used in the source hexapole was set between 6.5 and 6.8 × 10^−2 mbar argon optimized for minimal complex dissociation and the backing pressure of the source roughing pump was set between 7.0 and 8.5 mbar. Spectra were recorded with applied voltages for the capillary and cone of 1.20 kV and 240 V, respectively. Note that charge state distributions for P dimers were sometimes slightly shifted as was the degree of glycan clustering per charge state. These changes were highly variable and not quantifiable.
(§2) For calibration of the raw data, a 25 mg/mL cesium iodide spectrum from the same day was used. MassLynx V4.1 (Waters, Manchester, UK) was used to assign peak series to protein species and to determine the mass after minimal smoothing. Furthermore, OriginPro 2016 SR2 (OriginLab, Northampton, MA, USA) was used for spectral deconvolution and curve fitting. Correction for nonspecific protein-ligand clustering was performed as described. Corrected peak areas were averaged and normalized to the free-protein signal. Data were based on at least three independent measurements. Python code Panda and Numpy package were used to calculate the specific binding of P dimers according to the glycan clustering ratio obtained from the selected reference protein candidates. Seaborn and matplotlib.pyplot package were imported into a python script to plot the results. The module of sklearn.linear model was applied for linear regression. The matplotlib and heatmap package were used to plot the heatmap.
(§3) Theoretically, the KD is calculated by measuring the concentration of the three components (Pfree, Lfree, PL) in solution. Usually, these values are only indirectly accessible because they require ligand titration up to binding saturation. However, native MS allows for the directly measurement of Pfree and PL, from which Lfree can be calculated using the input concentrations. In the present work, the non-covalent interaction was measured in the gas phase assuming identical ESI and detection efficiency for free and glycan-associated proteins, both for the analyte and the reference protein. […] For P dimers, the equations reflect glycan binding to the individual monomers assuming that binding sites on each monomer are equal and independent.
(§4) Using R described in Equation (3), the KD calculation can be re-written into Equation (4) with the known initial concentration of glycan ligand [L0] and protein [P0], adapted from Sun et al.:(3) R=PLequil∕Pequil=∑nA(PL^n+)∕n∕∑nA(P^n+)∕n (4) KD =L0−RP0/1+R/R
(§5) For the carbohydrate-binding experiments, it was essential to keep the initial protein concentrations and pH value constant during the analysis of the protein-carbohydrate solutions. While acidification occurs in any ESI droplet, the remaining solution in the capillary changes pH over time. Therefore, accumulated spectra were obtained within 10 min after the voltages were applied to minimize the influence of pH changes during the measurements. […]

[2] = target: T2, alcohol dehydrogenase from Saccharomyces cerevisiae (ADH) (Saccharomyces cerevisiae, UniProt P00330); assay: Native MS glycan clustering to reference protein ADH; conditions: on ADH
T2 construct: alcohol dehydrogenase from Saccharomyces cerevisiae (ADH, CAS number 9031-72-5); purchased Sigma-Aldrich (Merck, Germany); host or cells: Saccharomyces cerevisiae
T2 sequence (P00330 2-348 limits assumed): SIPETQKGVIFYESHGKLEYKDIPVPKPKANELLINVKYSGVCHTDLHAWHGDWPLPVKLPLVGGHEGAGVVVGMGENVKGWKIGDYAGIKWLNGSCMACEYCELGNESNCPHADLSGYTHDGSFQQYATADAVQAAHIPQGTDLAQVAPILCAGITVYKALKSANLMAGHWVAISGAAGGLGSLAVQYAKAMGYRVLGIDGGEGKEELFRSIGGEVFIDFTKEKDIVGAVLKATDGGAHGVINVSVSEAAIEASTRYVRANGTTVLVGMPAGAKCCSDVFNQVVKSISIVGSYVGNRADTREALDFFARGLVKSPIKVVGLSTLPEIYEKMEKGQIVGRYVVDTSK
Experimental: as §1, §2, §3, §4, §5

[3] = target: T3, human apo-transferrin (apo-TFF) (Homo sapiens, UniProt P02787); assay: Native MS glycan clustering to reference protein apo-TFF; conditions: on apo-TFF
T3 construct: purchased Sigma-Aldrich (Merck, Germany)
Experimental: as §1, §2, §3, §4, §5

[4] = target: T4, cytochrome c from equine heart (cyt c) (Equus caballus, UniProt P00004); assay: Native MS glycan clustering to reference protein cyt c; conditions: on Cyt c
T4 construct: cytochrome c from equine heart (cyt c, CAS number 9007-43-6); purchased Sigma-Aldrich (Merck, Germany); host or cells: equine heart
Experimental: as §1, §2, §3, §4, §5

T3 sequence (P02787 20-698): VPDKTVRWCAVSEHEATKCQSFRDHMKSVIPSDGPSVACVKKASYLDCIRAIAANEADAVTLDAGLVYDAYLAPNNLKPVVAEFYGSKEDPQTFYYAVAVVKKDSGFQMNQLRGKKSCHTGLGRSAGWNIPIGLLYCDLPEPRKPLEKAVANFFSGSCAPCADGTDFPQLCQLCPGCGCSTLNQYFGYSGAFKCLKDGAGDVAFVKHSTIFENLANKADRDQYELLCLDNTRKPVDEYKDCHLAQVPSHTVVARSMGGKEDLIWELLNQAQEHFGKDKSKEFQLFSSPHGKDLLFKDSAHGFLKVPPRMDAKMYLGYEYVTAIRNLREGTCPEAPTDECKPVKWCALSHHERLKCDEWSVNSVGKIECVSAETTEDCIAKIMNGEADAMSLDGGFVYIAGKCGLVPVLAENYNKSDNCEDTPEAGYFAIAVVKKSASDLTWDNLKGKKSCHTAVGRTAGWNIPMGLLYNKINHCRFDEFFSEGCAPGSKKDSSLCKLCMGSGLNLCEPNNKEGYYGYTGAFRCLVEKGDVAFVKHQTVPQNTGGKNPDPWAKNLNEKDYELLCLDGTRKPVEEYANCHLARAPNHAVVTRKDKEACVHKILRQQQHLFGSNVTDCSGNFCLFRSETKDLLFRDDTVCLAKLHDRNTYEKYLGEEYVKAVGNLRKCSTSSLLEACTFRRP
T4 sequence (P00004 whole entry): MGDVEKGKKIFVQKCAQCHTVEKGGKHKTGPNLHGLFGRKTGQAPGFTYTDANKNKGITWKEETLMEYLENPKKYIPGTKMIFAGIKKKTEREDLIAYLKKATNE

Row | SMILES | Glycan-Clustering Ratio R ([1]; 100 µM glycan) | Glycan-Clustering Ratio R ([1]; 200 µM glycan) | Glycan-Clustering Ratio R ([1]; 300 µM glycan) | Glycan-Clustering Ratio R ([1]; 400 µM glycan) | Glycan-Clustering Ratio R ([1]; 500 µM glycan) | Glycan-Clustering Ratio R ([2]; 100 µM glycan) | Glycan-Clustering Ratio R ([2]; 200 µM glycan) | Glycan-Clustering Ratio R ([2]; 300 µM glycan) | Glycan-Clustering Ratio R ([2]; 400 µM glycan) | Glycan-Clustering Ratio R ([2]; 500 µM glycan) | Glycan-Clustering Ratio R ([3]; 100 µM glycan) | Glycan-Clustering Ratio R ([3]; 200 µM glycan) | Glycan-Clustering Ratio R ([3]; 300 µM glycan) | Glycan-Clustering Ratio R ([3]; 400 µM glycan) | Glycan-Clustering Ratio R ([3]; 500 µM glycan) | Glycan-Clustering Ratio R ([4]; 100 µM glycan) | Glycan-Clustering Ratio R ([4]; 200 µM glycan) | Glycan-Clustering Ratio R ([4]; 300 µM glycan) | Glycan-Clustering Ratio R ([4]; 400 µM glycan) | Glycan-Clustering Ratio R ([4]; 500 µM glycan)
1 | CC(=O)N[C@H]1C(O)O[C@H](CO)[C@@H](O)[C@@H]1O[C@@H]1O[C@H](CO)[C@H](O)[C@H](O[C@H]2O[C@H](CO)[C@H](O)[C@H](O)[C@H]2O)[C@H]1O[C@@H]1O[C@@H](C)[C@@H](O)[C@@H](O)[C@@H]1O (stereo partly drawn) [HBGA B, Galα1-3(Fucα1-2)Galβ1-3GlcNAc] | 0.04±0.01 | 0.04±0.01 | 0.10±0.03 | 0.18±0.01 | 0.25 ± 0.00 | 0.42±0.03 | 0.64±0.06 | 0.97±0.08 | 1.02±0.08 | 1.45 ± 0.11 | 0.37±0.03 | 0.56±0.05 | 0.62±0.03 | 0.74±0.01 | 0.82 ± 0.03 | 0.14±0.01 | 0.15±0.01 | 0.19±0.03 | 0.29±0.02 | 0.35 ± 0.03
2 | CC(=O)N[C@H]1[C@H](O[C@H]2[C@@H](O)[C@@H](CO)O[C@H](O[C@@H]3[C@H](O)[C@@H](O)[C@H](O[C@H]4[C@H](O)[C@@H](O)C(O)O[C@@H]4CO)O[C@@H]3CO)[C@@H]2O)O[C@H](CO)[C@H](O)[C@@H]1O (stereo partly drawn) [Gb4, GalNAc β1-3 Galα1-4Galβ1-4Glc] | 0.03±0.01 | 0.04±0.01 | 0.12±0.02 | 0.21±0.20 | 0.09 ± 0.03 | 0.34±0.04 | 0.66±0.03 | 0.81±0.11 | 1.03±0.08 | 1.26 ± 0.03 | 0.36±0.05 | 0.57±0.06 | 0.63±0.02 | 0.69±0.02 | 0.80 ± 0.05 | 0.10±0.01 | 0.15±0.00 | 0.19±0.03 | 0.29±0.04 | 0.45 ± 0.02
3 | CC(=O)N[C@H]1[C@@H](O[C@H]2[C@@H](O)[C@@H](CO)O[C@@H](O[C@H]3[C@H](O)[C@@H](CO)OC(O)[C@@H]3NC(C)=O)[C@@H]2O[C@@H]2O[C@@H](C)[C@@H](O)[C@@H](O)[C@@H]2O)O[C@H](CO)[C@H](O)[C@@H]1O (stereo partly drawn) [HBGA A, GalNAcα1-3(Fucα-2)Galβ1-3GlcNAc] | 0.06±0.03 | 0.04±0.01 | 0.13±0.01 | 0.18±0.01 | 0.10 ± 0.05 | 0.39± 0.02 | 0.65± 0.02 | 0.88± 0.10 | 0.98± 0.05 | 1.32 ± 0.10 | 0.39±0.02 | 0.57±0.05 | 0.65±0.02 | 0.71±0.03 | 0.79 ± 0.03 | 0.18±0.03 | 0.16± 0.02 | 0.19± 0.03 | 0.27± 0.02 | 0.41 ± 0.09
